Source: patent US8378117B2 (priority 2005, dated 2013)

Key:
CB1 receptor [1] = target: T1, CB1 receptor (Homo sapiens, UniProt P21554); experiment: cell-based; settings: CB1 Receptor Functional Agonist EC50, SK-N-MC cells, forskolin induced β-galactosidase activity
T1 construct: expressed in transfected cells
How it was run: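 Read-out is forskolin-driven CRE-β-gal reporter activity in stably transfected human-CB1 SK-N-MC cells, normalised to vehicle (100%); agonism lowers, inverse agonism raises signal. Values are EC50 (linear regression, multiple concentrations) or % change at one concentration.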

CB2 receptor [2] = target: T2, CB2 receptor (Homo sapiens, UniProt P34972); experiment: Binding assay for CB2 agonists or inverse agonists (SK-N-MC membranes, [3H]-CP-55,940)
T2 construct: expressed in transfected cells
How it was run: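 IC50 came from percent-inhibition data over several compound concentrations, fitted by linear regression. Binding used semi-purified membranes of human CB2-transfected SK-N-MC cells, 90 min at 30 °C, pH 7.5 Tris-HCl with MgCl2, EDTA and BSA, then filtration and scintillation counting.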

CB2 receptor [3] = target: T2, CB2 receptor; experiment: Functional cell-based assay, CB2 receptor mediated change in CRE β-gal expression (SK-N-MC cells); settings: CB2 Receptor Functional Agonist EC50, forskolin induced β-galactosidase activity, SK-N-MC cells
Text: The CB1 and CB2 receptors are G-protein coupled receptors (GPCR), which influence cell function via the Gi-protein. These receptors modulate the activity of intracellular adenylate cyclase, which in turn produces the intracellular signal messenger cyclic-AMP (cAMP).
At baseline, or during non-ligand bound conditions, these receptors are constitutively active and tonically suppress adenylate cyclase activity. The binding of an agonist causes further receptor activation and produces additional suppression of adenylate cyclase activity. The binding of an inverse agonist inhibits the constitutive activity of the receptors and results in an increase in adenylate cyclase activity.
By monitoring intracellular adenylate cyclase activity, the ability of compounds to act as agonists or inverse agonists can be determined.
Test compounds were evaluated in SK-N-MC cells which, using standard transfection procedures, were stably transfected with human cDNA for pcDNA3-CRE β-gal and pcDNA3 CB1 receptor (human) or pcDNA3 CB2 receptor (human). By expressing CRE β-gal, the cells produced β-galactosidase in response to CRE promoter activation by cAMP. Cells expressing CRE β-gal and either the human CB1 or CB2 receptor will produce less β-galactosidase when treated with a CB1/CB2 agonist and will produce more β-galactosidase when treated with a CB1/CB2 inverse agonist.
The cells were grown in 96-well plates under standard cell culture conditions at 37° C. in a 5% CO2 atmosphere and culture media (wherein the media was supplemented with 2 mM L-glutamine, […] sodium pyruvate, 10% FBS (fetal bovine serum) and antibiotics).
For cells expressing CRE β-gal and the CB2 receptor, CB2 agonists reduced β-galactosidase activity in a dose-dependent manner and CB2 inverse agonists increase β-galactosidase activity in a dose-dependent manner.
The change in forskolin induced β-galactosidase activity was determined by setting a vehicle treated cell's activity value at 100% and expressing the β-galactosidase activity measured in a corresponding compound treated cell as a percent of the vehicle treated cell activity.
The EC50 value for functional activity for compounds tested was calculated by linear regression and was obtained from studies in which varying compound concentrations were used.

Male CD-1 mice = experiment: Oil of mustard induced colitis model; assay type: in vivo
Text: In the distal colon, the oil of mustard colitis model is characterized by a discontinuous pattern of mucosal epithelial damage, submucosal edema, infiltration of inflammatory cells (including macrophages, neutrophils and lymphocytes) into the mucosa and submucosa, increased wet weight of the colon, shrinkage of the colon length, diarrhea and apparent inflammation (see, Kimball E. S., Palmer J. M., D'Andrea M. R., Homby P. J. and Wade P. R., Acute colitis induction by oil of mustard results in later development of an IBS-like accelerated upper GI transit in mice, Am. J Physiol. Gastrointest. Liver Physiol., 2005, 288: G 1266-1273).
Male CD-1 mice (Charles River Laboratories, Kingston, N.C.) (9-11 weeks old) and fresh oil of mustard (OM) (allyl isothiocyanate, 98% purity, Sigma-Aldrich St. Louis, Mo.) were used.
The mice (9 per treatment group) were briefly anesthetized with ketamine/xylasine (Sigma, St. Louis, Mo.) and a solution of 0.5% OM in 30% ethanol (50 μL) was administered intracolonically (to a depth of 4 cm) via syringe (equipped with a ball-tipped 22 G needle).
A test compound was orally administered one day prior to colitis induction for assessing a prophylactic regimen or one day post-induction for assessing a therapeutic regimen. A test compound was orally administered daily thereafter. Two days after OM administration, the last test compound dose was administered.
Three days after OM administration, the animals were sacrificed. The colons were resected, examined for signs of inflammation, weighed after removing fecal contents and the length from the aboral end of the cecum to the anus was measured. The fecal contents were examined for signs of diarrhea. The distal colon between the 1st and the 4th centimeter was removed and placed in 10% neutral buffered formalin for histological analysis.
The macroscopic observations of colon inflammation (a measure of colon damage), colon weight and length and stool consistency and appearance were assigned a score and used to evaluate colitis severity.
The four observation scores for each colon were combined, whereby a combined score of 0 represents a normal colon and a combined score of 15 represents a maximally affected colon. Statistical analyses were performed in Graphpad Prism 4.0 using ANOVA.
Histological analyses of tissues consisted of staining paraffin-embedded tissue sections with hematoxylin-eosin dye. The tissues were examined using light microscopy by an investigator who was blinded to the sample groups.
The microscopic observations of epithelial damage, cellular infiltration and damage or alteration of smooth muscle architecture (a measure of muscle damage) were assigned a score and used to evaluate colitis severity.
The scores for each colon were combined, whereby a combined score of 0 represents a normal colon and a combined score of 9 represents a maximally affected colon. Statistical analyses were performed in Graphpad Prism 4.0 using ANOVA.
The Macroscopic Score and Microscopic Score results for each treatment group in the prophylactic and therapeutic regimens were each combined into a mean score and expressed as % inhibition of colitis (% Inh). Test (#) represents the number of experiments at each dose level.

CB1 receptor [4] = target: T1, CB1 receptor; experiment: Binding assay for CB1 agonists or inverse agonists (SK-N-MC membranes, [3H]-CP-55,940); settings: for IC50: Cannabinoid CB1 Receptor Binding IC50, calculated by linear regression from percent inhibition at various test concentrations; for inhibition at 1 µM: read-out: CB1 receptor binding percent inhibition, test concentration 1 μM (footnote 1)
How it was run: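 Radioligand displacement: [3H]-CP-55,940 at […], 90 min at 30° C, pH 7.5 Tris buffer with 0.5 mg/mL fatty-acid-free BSA, using semi-purified membranes of human-CB1-transfected SK-N-MC cells. Bound counts collected on GF/C filters, 10 uM WIN 55,212 for non-specific; IC50 from percent inhibition over several concentrations.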

[5] = test concentration 0.2 μM (footnote 2), 0.2 µM
[6] = Therapeutic Regimen, 5 mg/kg oral, 5 mg/kg
[7] = Prophylactic Regimen, 2.5 mg/kg oral
[8] = Prophylactic Regimen, 5 mg/kg oral
[9] = Therapeutic Regimen, 5 mg/kg oral

T2 sequence (P34972 whole entry): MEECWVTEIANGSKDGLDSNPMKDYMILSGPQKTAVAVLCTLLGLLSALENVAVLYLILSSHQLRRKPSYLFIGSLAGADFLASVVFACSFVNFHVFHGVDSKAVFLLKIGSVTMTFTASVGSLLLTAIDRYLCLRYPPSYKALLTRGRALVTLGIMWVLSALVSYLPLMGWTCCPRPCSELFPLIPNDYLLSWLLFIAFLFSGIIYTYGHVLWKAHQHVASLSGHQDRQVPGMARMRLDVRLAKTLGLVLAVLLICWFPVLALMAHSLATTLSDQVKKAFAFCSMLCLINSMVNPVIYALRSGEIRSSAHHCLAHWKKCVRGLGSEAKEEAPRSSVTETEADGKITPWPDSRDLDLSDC
T1 sequence (P21554 whole entry): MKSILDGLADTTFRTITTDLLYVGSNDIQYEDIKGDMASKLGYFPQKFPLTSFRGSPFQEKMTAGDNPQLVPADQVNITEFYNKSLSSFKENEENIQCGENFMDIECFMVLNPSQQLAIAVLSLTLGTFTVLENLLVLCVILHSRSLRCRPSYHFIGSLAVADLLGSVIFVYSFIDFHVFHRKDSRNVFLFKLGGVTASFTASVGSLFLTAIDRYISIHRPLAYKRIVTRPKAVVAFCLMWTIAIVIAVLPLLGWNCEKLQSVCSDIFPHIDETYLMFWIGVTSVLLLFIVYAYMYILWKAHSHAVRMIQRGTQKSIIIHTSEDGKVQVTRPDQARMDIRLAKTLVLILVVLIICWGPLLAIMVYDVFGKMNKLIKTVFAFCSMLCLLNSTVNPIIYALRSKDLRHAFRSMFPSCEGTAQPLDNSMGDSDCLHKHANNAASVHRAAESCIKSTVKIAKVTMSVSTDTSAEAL

Row | Structure (SMILES) | EC50 (CB1 receptor [1]) [nM] | CB2 receptor binding percent inhibition (CB2 receptor [2]; [5]) | % Inh (Macro), % inhibition of colitis, macroscopic score (Male CD-1 mice; [6]) [%] | IC50 (CB1 receptor [4]) [nM] | CB1 receptor binding percent inhibition (CB1 receptor [4]; [5]) | CB2 receptor binding percent inhibition (CB2 receptor [2]; test concentration not stated) [%] | % Inh (Macro), % inhibition of colitis, macroscopic score (Male CD-1 mice; [7]) [%] | % Inh (Macro), % inhibition of colitis, macroscopic score (Male CD-1 mice; [8]) [%] | inhibition at 1 µM (CB1 receptor [4]) [%] | % Inh (Macro), % inhibition of colitis, macroscopic score (Male CD-1 mice; [9]) [%] | further results
1 | O=C(N[C@@H](CO)c1ccccc1)c1n[nH]c2c1CCCCC2Cc1cccc(Cl)c1 (stereo in doubt) [Cpd 229, (8R*)-8-(3-chloro-benzyl)-1,4,5,6,7,8-hexahydro-cycloheptapyrazole-3-carboxylic acid [(1R)-2-hydroxy-1-phenyl-ethyl]-amide] | 60 | 95% | 56.9 ± 11.6 | 60 | 73% | – | – | – | – | – | IC50 (CB2 receptor [2]; Cannabinoid CB2 Receptor Binding IC50, calculated by linear regression from percent inhibition at various test concentrations): 20 nM; EC50 (CB2 receptor [3]): 2 nM
2 | C[C@H](NS(=O)(=O)/C=C/c1n[nH]c2c1CCCCC2Cc1ccc(F)cc1)c1ccccc1 (stereo partly drawn) [Cpd 108, (2E)-2-[8-(4-fluoro-benzyl)-1,4,5,6,7,8-hexahydro-cycloheptapyrazol-3-yl]-ethenesulfonic acid [(1S)-1-phenyl-ethyl]-amide] | – | – | – | – | – | 100 | 51.2 ± 19.1 | 13.4 ± 13.3 | 55 | – | inhibition at 0.5 µM (CB1 receptor [4]; read-out: CB1 receptor binding percent inhibition, test concentration 0.5 μM (footnote 10)): 33%; CB1 receptor binding percent inhibition (CB1 receptor [4]; test concentration not stated): 44%
3 | O=C(N[C@@H](CO)c1ccccc1)c1n[nH]c2c1CCCCC2Cc1cccc(Cl)c1 (stereo in doubt) [Cpd 228, (8S*)-8-(3-chloro-benzyl)-1,4,5,6,7,8-hexahydro-cycloheptapyrazole-3-carboxylic acid [(1R)-2-hydroxy-1-phenyl-ethyl]-amide] | – | ^(2)45% | 51.7 ± 13.2 | – | ^(2)0% | – | – | – | – | – | –
4 | C[C@H](NC(=O)c1nn(-c2cc(Cl)ccc2Cl)c2c1CCCC/C2=C\c1ccc(Cl)cc1)c1ccccc1 [Cpd 198, (8E)-8-(4-chloro-benzylidene)-1-(2,5-dichloro-phenyl)-1,4,5,6,7,8-hexahydro-cycloheptapyrazole-3-carboxylic acid [(1S)-1-phenyl-ethyl]-amide] | 20 | – | – | 20 | – | – | – | – | – | 41.0 ± 17 | inhibition at 0.2 µM (CB2 receptor [2]; read-out: CB2 receptor binding percent inhibition, test concentration 0.2 μM (footnote 2)): 68%; inhibition at 0.2 µM (CB1 receptor [4]; read-out: CB1 receptor binding percent inhibition): 87%
5 | C[C@H](NS(=O)(=O)/C=C/c1n[nH]c2c1CCCCC2Cc1cccc(F)c1)c1ccccc1 (stereo partly drawn) [Cpd 96, (2E)-2-[8-(3-fluoro-benzyl)-1,4,5,6,7,8-hexahydro-cycloheptapyrazol-3-yl]-ethenesulfonic acid [(1S)-1-phenyl-ethyl]-amide] | – | – | – | – | – | 72 | 8.0 ± 16.7 | 10.8 ± 13.4 | 0 | 7.6 ± 11.5 | inhibition at 0.015 µM (CB2 receptor [2]; test concentration 0.015 μM (footnote 7), read-out: CB2 receptor binding percent inhibition): 50%; inhibition at 1 µM (CB2 receptor [2]; test concentration 1 μM (footnote 1), read-out: CB2 receptor binding percent inhibition): 94%
